{"source": "patent US6946297B2", "about": "“System for stabilizing samples” (priority 1999, dated 2005)", "format_in_all_cases": "cell-based", "key": {"[1]": {"test_system": "Enterobacter aerogenes", "assay": "Survival of organisms in inoculated urine with preservative components, 24 hours at room temperature", "set-up": "key to Survival value enae: 24 h count / control count; 1 = no change, 0.1 = 1-log decrease", "description": "(§1) Antimicrobial activity for each active ingredient in the Chemistat I formulations was first determined for representative organisms listed in Table I. A culture for each organism of interest on blood agar was incubated at 36° C. overnight. About two to three colonies of the organism were transferred via sterile swab from the blood agar culture into a 5 ml Mueller-Hinton broth culture tube, which was then incubated on a rotator for about two to three hours at 36° C. Using a spectrophotometer set at a wavelength of 630 nm, the turbidity of broth culture was adjusted by the addition of Mueller-Hinton broth to an optical density equivalent to approximately 1×10^8 colony forming units (cfu)/ml to form an inoculum solution. An aliquot of the inoculum solution was plated onto blood agar to determine the actual control organism count. For each component listed in Table II, the component was added to filter-sterilized pooled normal urine at the concentration given in Table II to form a test sample. The test sample was then inoculated with an aliquot of the inoculum solution providing a final organism count of approximately 1×10^6 cfu/ml of test sample. Immediately after thorough mixing, an aliquot of the test sample was removed and serially diluted in PBS, and serial dilutions were plated onto blood agar to determine the Time Zero organism count. The inoculated plates were incubated at 36° C., and organism counts were recorded after 18-24 hours. After incubating the test sample for 24 hours at room temperature, an aliquot of the test sample was again removed, serially diluted in PBS and plated onto blood agar. After incubating for 18-24 hours at 36° C., organism counts were obtained. The organism count obtained after 24 hours incubation at room temperature was divided by the control organism count to provide the survival value of each organism as recorded in Table II. With respect to changes in microbial count, a survival value of 1 represents no change; a survival value of 0.1 indicates a 1-log decrease; a survival value of 10 indicates a 1-log increase; and a survival value of 0.000 represents a decrease of greater than or equal to 3-logs. In comparison, the lower the survival value, the greater the component's capacity for controlling organism growth."}, "[2]": {"test_system": "Escherichia coli", "assay": "Survival of organisms in inoculated urine with preservative components, 24 hours at room temperature", "set-up": "key to Survival value esco: 24 h count / control count; 1 = no change, 0.1 = 1-log decrease", "description": "as §1"}, "[3]": {"test_system": "Candida albicans", "assay": "Survival of organisms in inoculated urine with preservative components, 24 hours at room temperature", "set-up": "key to Survival value caal: 24 h count / control count; 1 = no change, 0.1 = 1-log decrease", "description": "as §1"}, "[4]": {"test_system": "Pseudomonas aeruginosa", "assay": "Survival of organisms in inoculated urine with preservative components, 24 hours at room temperature", "description": "as §1"}, "[5]": {"test_system": "Klebsiella pneumoniae", "assay": "Survival of organisms in inoculated urine with preservative components, 24 hours at room temperature", "conditions": "single component at 0.2 μl/ml", "description": "as §1"}, "[6]": {"test_system": "Proteus vulgaris", "assay": "Survival of organisms in inoculated urine with preservative components, 24 hours at room temperature", "conditions": "single component at 0.2 μl/ml", "description": "as §1"}, "[7]": {"test_system": "Enterococcus faecalis", "assay": "Survival of organisms in inoculated urine with preservative components, 24 hours at room temperature", "set-up": "key to Survival value enfa: 24 h count / control count; 1 = no change, 0.1 = 1-log decrease", "description": "as §1"}, "[8]": {"test_system": "microorganisms of interest", "assay": "Antimicrobial (cidal) activity against the organisms of interest taken together", "conditions": "component alone", "description": "as §1, with “With respect to changes in microbial count, a survival value of 1 represents no change; a survival value of 0.1 indicates a 1-log decrease; a survival value of 10 indicates a 1-log increase; and a survival value of 0.000 represents a decrease of greater than or equal to 3-logs. In comparison, the lower the survival value, the greater the component's capacity for controlling organism growth.” left out"}}, "data": [{"compound": "CC=Cc1ccc(O)c(OC)c1", "note": "[Isoeugenol, isoeugenol]", "values": [{"measurement": "Concentration with cidal activity against Enterobacter aerogenes", "setting": "[1]; component alone", "value": 2.5, "unit": "μl/ml"}, {"measurement": "Survival value enae", "setting": "[1]; single component at 1.5 μl/ml", "value": "tntc"}, {"measurement": "Survival value enae", "setting": "[1]; single component at 2.5 μl/ml", "value": 0.000}, {"measurement": "Concentration with cidal activity against Escherichia coli", "setting": "[2]; component alone", "value": 1.5, "unit": "μl/ml"}, {"measurement": "Survival value esco", "setting": "[2]; single component at 0.2 μl/ml", "value": "tntc"}, {"measurement": "Survival value esco", "setting": "[2]; single component at 0.5 μl/ml", "value": "tntc"}, {"measurement": "Survival value esco", "setting": "[2]; single component at 1.5 μl/ml", "value": 0.000}, {"measurement": "Survival value esco", "setting": "[2]; single component at 2.5 μl/ml", "value": 0.000}, {"measurement": "Survival value esco", "setting": "[2]; single component at 4.6 μl/ml", "value": 0.000}, {"measurement": "Concentration with cidal activity against Candida albicans", "setting": "[3]; component alone", "value": 2.5, "unit": "μl/ml"}, {"measurement": "Survival value caal", "setting": "[3]; single component at 0.2 μl/ml", "value": 0.160}, {"measurement": "Survival value caal", "setting": "[3]; single component at 0.5 μl/ml", "value": 2.786}, {"measurement": "Survival value caal", "setting": "[3]; single component at 1.5 μl/ml", "value": 0.152}, {"measurement": "Survival value caal", "setting": "[3]; single component at 2.5 μl/ml", "value": 0.000}, {"measurement": "Survival value caal", "setting": "[3]; single component at 4.6 μl/ml", "value": 0.000}, {"measurement": "Survival value psae", "setting": "[4]; single component at 0.2 μl/ml", "value": "tntc"}, {"measurement": "Survival value psae", "setting": "[4]; single component at 1.5 μl/ml", "value": "tntc"}, {"measurement": "Survival value psae", "setting": "[4]; single component at 2.5 μl/ml", "value": 0.398}, {"measurement": "Survival value klpn", "setting": "[5]", "value": "tntc"}, {"measurement": "Survival value prvu", "setting": "[6]", "value": "tntc"}, {"measurement": "Concentration with cidal activity against Enterococcus faecalis", "setting": "[7]; component alone", "value": "> 4.6", "unit": "μl/ml"}, {"measurement": "Survival value enfa", "setting": "[7]; single component at 0.2 μl/ml", "value": "tntc"}, {"measurement": "Survival value enfa", "setting": "[7]; single component at 0.5 μl/ml", "value": "tntc"}, {"measurement": "Survival value enfa", "setting": "[7]; single component at 1.5 μl/ml", "value": "tntc"}, {"measurement": "Survival value enfa", "setting": "[7]; single component at 2.5 μl/ml", "value": 0.750}, {"measurement": "Survival value enfa", "setting": "[7]; single component at 4.6 μl/ml", "value": 0.460}, {"measurement": "Concentration required for cidal antimicrobial action for many organisms of interest", "setting": "[8]", "value": "greater than 1.5 μg/ml"}]}]}
